# Values joined by “and” are separate entries in the source; they are usually repeats but may differ in a detail not shown here. Equal entries are not always repeated. Where two headings read alike, the source gives them in different places.
# Test: Plasma pharmacokinetics of oral NMP by LCMSMS
# Type: in vivo, human
# Settings: plasma, plasma
# Description: Blood samples were taken from patients before NMP and at one, two, four, eight and 24 h post dose. Plasma samples (20 μl) were prepared by adding five volumes of methanol containing deuterated internal standard. The samples were vortexed then centrifuged, and the supernatant was transferred to a vial and injected onto the LCMSMS. The LCMSMS system consisted of a Shimadzu UHPLC with a SCIEX 6500QTrap, a KinetexC18 (3 × 50 mm, 2.6 μm) column and using a gradient of 0.1% formic acid and acetonitrile. The initial conditions were 0.5 ml/min and 2% acetonitrile; this was held for 1 min then increased to 20% acetonitrile at 2 min then increased to 70% acetonitrile and held for 0.5 min. Equilibration time was 0.5 min. MRMs for NMP were 100 → 58, 100 → 69, 100 → 41 and for the internal standard d9NMP 109 → 62, […]. PK analysis was performed using Pkanalix (version 2021R1. Antony, France: Lixoft SAS, 2021).
# [1] = oral 25 mg, patient RMH-01 occasion 6
# [2] = oral 50 mg, average of N = 5 profiles
# [3] = oral 50 mg, individual profiles, patient RMH-01 occasions 1-5
# [4] = oral 100 mg, average of N = 5 profiles
# [5] = oral 100 mg, individual profiles, patient RMH-02 occasions 1-5
# [6] = oral 200 mg, average of N = 8 profiles
# [7] = oral 200 mg, individual profiles (PMC-03, MON-04, MON-06, MON-07, PMC-08)
# [8] = oral 200 mg, individual profiles (PMC-03, MON-04, PMC-05, MON-06, MON-07, PMC-08)
# [9] = oral 300 mg, average of N = 3 profiles
# [10] = oral 300 mg, individual profiles (PMC-09, MON-10, MON-11)
# [11] = oral 400 mg, average of N = 2 profiles
# [12] = oral 400 mg, individual profiles (MON-11 occasion 2, MON-12)
# [13] = oral 500 mg, patient MON-11 occasion 3
# [14] = oral 600 mg, patient MON-11 occasion 4
# [15] = oral 700 mg, patient MON-11 occasion 5
# [16] = oral 800 mg, patient MON-11 occasion 6
smiles,measurement,setting,value
"CN1CCCC1=O [NMP, N-methyl-2-pyrrolidone]",Cmax,"human, po, 700 mg, oral 700 mg, patient MON-11 occasion 5, read-out: Cmax",12400 ng/mL
same,half-life,"human, po, 700 mg, oral 700 mg, patient MON-11 occasion 5, read-out: Half-life (converted)",2.35 h
same,Tmax,"human, po, 700 mg, oral 700 mg, patient MON-11 occasion 5, read-out: Tmax",0.5 h
same,Cmax,"human, po, 800 mg, 800 mg dose level, oral, one patient, read-out: highest Cmax achieved",~168 µM
same,AUC,"human, po, 800 mg, oral 800 mg, patient MON-11 occasion 6, read-out: AUC",90300 ng·h/mL
same,Cmax,"human, po, 800 mg, oral 800 mg, patient MON-11 occasion 6, read-out: Cmax",16700 ng/mL
same,half-life,"human, po, 800 mg, oral 800 mg, patient MON-11 occasion 6, read-out: Half-life (converted)",1.75 h
same,Tmax,"human, po, 800 mg, oral 800 mg, patient MON-11 occasion 6, read-out: Tmax",1 h
same,Cmax,"human, po, 800 mg, oral, one patient, read-out: Maximum plasma concentration (Cmax), highest achieved",16700 ng/mL
same,half-life,"human, po, all dose levels 25-800 mg oral, N = 28 profiles, read-out: Half-life, Overall Average (converted)",1.55 h
same,AUC,"human, po, all dose levels 25-800 mg oral, N = 29 profiles, read-out: AUC, Overall Average",16900 ng·h/mL
same,Cmax,"human, po, all dose levels 25-800 mg oral, N = 29 profiles, read-out: Cmax, Overall Average",5290 ng/mL
same,Tmax,"human, po, all dose levels 25-800 mg oral, N = 29 profiles, read-out: Tmax, Overall Average",~0.5 h
same,CL/F,[1],16.65 L⋅h⁻¹
same,V/F,[1],20.83 L
same,"CL/F, Average",[2],23.62 L⋅h⁻¹
same,"V/F, Average",[2],36.62 L
same,AUC,[3],1.86 h⋅mg⋅L⁻¹ and 1.88 h⋅mg⋅L⁻¹ and 2.09 h⋅mg⋅L⁻¹ and 2.18 h⋅mg⋅L⁻¹
same,CL/F,[3],17.68 L⋅h⁻¹ and 26.86 L⋅h⁻¹ and 26.66 L⋅h⁻¹ and 23.93 L⋅h⁻¹ and 22.97 L⋅h⁻¹
same,Cmax,[3],1.24 mg⋅L⁻¹ and 1.25 mg⋅L⁻¹ and 1.04 mg⋅L⁻¹ and 1.06 mg⋅L⁻¹
same,V/F,[3],30.85 L and 38.66 L and 41.02 L and 35.88 L and 36.67 L
same,half-life,[3],0.99 h and 1.07 h and 1.04 h and 1.11 h
same,"CL/F, Average",[4],14.04 L⋅h⁻¹
same,"V/F, Average",[4],36.98 L
same,AUC,[5],7.25 h⋅mg⋅L⁻¹ and 6.95 h⋅mg⋅L⁻¹ and 7.61 h⋅mg⋅L⁻¹ and 6.88 h⋅mg⋅L⁻¹
same,CL/F,[5],14.35 L⋅h⁻¹ and 13.79 L⋅h⁻¹ and 14.4 L⋅h⁻¹ and 13.13 L⋅h⁻¹ and 14.53 L⋅h⁻¹
same,Cmax,[5],2.51 mg⋅L⁻¹ and 2.52 mg⋅L⁻¹ and 2.43 mg⋅L⁻¹ and 2.65 mg⋅L⁻¹
same,V/F,[5],34.92 L and 41.77 L and 37.5 L and 34.02 L and 36.67 L
same,"CL/F, Average",[6],25.52 L⋅h⁻¹
same,"V/F, Average",[6],49.77 L
same,CL/F,[7],31.82 L⋅h⁻¹ and 24.02 L⋅h⁻¹ and 25.05 L⋅h⁻¹ and 20.34 L⋅h⁻¹ and 18.2 L⋅h⁻¹ and 9.1 L⋅h⁻¹ and 57.76 L⋅h⁻¹ and 17.85 L⋅h⁻¹
same,V/F,[7],64.35 L and 55.72 L and 43.19 L and 37.65 L and 36.79 L and 26.02 L and 87.19 L and 47.25 L
same,AUC,[8],6.29 h⋅mg⋅L⁻¹ and 8.33 h⋅mg⋅L⁻¹ and 7.98 h⋅mg⋅L⁻¹ and 9.83 h⋅mg⋅L⁻¹ and 5.49 h⋅mg⋅L⁻¹ and 10.99 h⋅mg⋅L⁻¹ and 21.99 h⋅mg⋅L⁻¹ and 3.46 h⋅mg⋅L⁻¹ and 11.21 h⋅mg⋅L⁻¹
same,Cmax,[8],2.33 mg⋅L⁻¹ and 3.98 mg⋅L⁻¹ and 4.43 mg⋅L⁻¹ and 5.05 mg⋅L⁻¹ and 2.05 mg⋅L⁻¹ and 4.95 mg⋅L⁻¹ and 7.26 mg⋅L⁻¹ and 2.64 mg⋅L⁻¹ and 3.79 mg⋅L⁻¹
same,"CL/F, Average",[9],15.62 L⋅h⁻¹
same,"V/F, Average",[9],33.93 L
same,AUC,[10],32.55 h⋅mg⋅L⁻¹ and 12.73 h⋅mg⋅L⁻¹ and 21.3 h⋅mg⋅L⁻¹
same,CL/F,[10],9.22 L⋅h⁻¹ and 23.57 L⋅h⁻¹ and 14.08 L⋅h⁻¹
same,Cmax,[10],6.89 mg⋅L⁻¹ and 6.81 mg⋅L⁻¹
same,V/F,[10],22.09 L and 38.59 L and 41.1 L
same,half-life,[10],1.13 h and 2.02 h
same,"CL/F, Average",[11],19.53 L⋅h⁻¹
same,"V/F, Average",[11],42.44 L
same,AUC,[12],15.99 h⋅mg⋅L⁻¹
same,CL/F,[12],14.03 L⋅h⁻¹ and 25.02 L⋅h⁻¹
same,Cmax,[12],7.63 mg⋅L⁻¹
same,V/F,[12],35.95 L and 48.93 L
same,half-life,[12],1.36 h
same,CL/F,[13],12.33 L⋅h⁻¹
same,V/F,[13],35.2 L
same,CL/F,[14],10.59 L⋅h⁻¹
same,V/F,[14],33.11 L
same,CL/F,[15],12.16 L⋅h⁻¹
same,V/F,[15],41.26 L
same,CL/F,[16],8.86 L⋅h⁻¹
same,V/F,[16],22.43 L
